From ChEMBL document CHEMBL4613211, “Aurone: A biologically attractive scaffold as anticancer agent” (Eur J Med Chem, 2019)

Tests used:
Format in all cases: functional
BT-549 = assay: Growth inhibition of human BT549 cells at 10 uM after 48 hrs by sulforhodamine B assay relative to control; details: BT-549, 48 h, read-out: GI
LOX IMVI = assay: Growth inhibition of human LOXIMVI cells at 10 uM after 48 hrs by sulforhodamine B assay relative to control; details: read-out: GI
NCI-H522 = assay: Growth inhibition of human NCI-H522 cells at 10 uM after 48 hrs by sulforhodamine B assay relative to control; details: NCI-H522, 48 h, read-out: GI
SF-295 = assay: Growth inhibition of human SF295 cells at 10 uM after 48 hrs by sulforhodamine B assay relative to control; details: SF-295, 48 h, read-out: GI
CAKI-1 = assay: Growth inhibition of human CAKI-1 cells at 10 uM after 48 hrs by sulforhodamine B assay relative to control; details: CAKI-1, 48 h, read-out: GI
OVCAR-5 = assay: Growth inhibition of human OVCAR5 cells at 10 uM after 48 hrs by sulforhodamine B assay relative to control; details: OVCAR-5, 48 h, read-out: GI
ACHN = assay: Growth inhibition of human ACHN cells at 10 uM after 48 hrs by sulforhodamine B assay relative to control; details: read-out: GI
HL-60(TB) = assay: Growth inhibition of human HL-60(TB) cells at 10 uM after 48 hrs by sulforhodamine B assay relative to control; details: HL-60, 48 h, read-out: GI
K562 = assay: Growth inhibition of human K562 cells at 10 uM after 48 hrs by sulforhodamine B assay relative to control; details: K562, 48 h, read-out: GI
OVCAR-4 = assay: Growth inhibition of human OVCAR4 cells at 10 uM after 48 hrs by sulforhodamine B assay relative to control; details: OVCAR-4, 48 h, read-out: GI
SK-OV-3 = assay: Growth inhibition of human SKOV3 cells at 10 uM after 48 hrs by sulforhodamine B assay relative to control; details: SK-OV-3, 48 h, read-out: GI
OVCAR-3 = assay: Growth inhibition of human OVCAR3 cells at 10 uM after 48 hrs by sulforhodamine B assay relative to control; details: OVCAR-3, 48 h, read-out: GI
NCI-H226 = assay: Growth inhibition of human NCI-H226 cells at 10 uM after 48 hrs by sulforhodamine B assay relative to control; details: NCI-H226, 48 h, read-out: GI
SR = assay: Growth inhibition of human SR cells at 10 uM after 48 hrs by sulforhodamine B assay relative to control; details: read-out: GI
SW-620 = assay: Growth inhibition of human SW620 cells at 10 uM after 48 hrs by sulforhodamine B assay relative to control; details: SW-620, 48 h, read-out: GI
RPMI-8226 = assay: Growth inhibition of human RPMI8226 cells at 10 uM after 48 hrs by sulforhodamine B assay relative to control; details: RPMI-8226, 48 h, read-out: GI
Hs-578T = assay: Growth inhibition of human Hs 578T cells at 10 uM after 48 hrs by sulforhodamine B assay relative to control; details: read-out: GI
SF-268 = assay: Growth inhibition of human SF268 cells at 10 uM after 48 hrs by sulforhodamine B assay relative to control; details: SF-268, 48 h, read-out: GI
HCT-116 = assay: Growth inhibition of human HCT116 cells at 10 uM after 48 hrs by sulforhodamine B assay relative to control; details: HCT-116, 48 h, read-out: GI
786-0 = assay: Growth inhibition of human 786-0 cells at 10 uM after 48 hrs by sulforhodamine B assay relative to control; details: 786-0, 48 h, read-out: GI
UACC-62 = assay: Growth inhibition of human UACC62 cells at 10 uM after 48 hrs by sulforhodamine B assay relative to control; details: UACC-62, 48 h, read-out: GI
UACC-257 = assay: Growth inhibition of human UACC257 cells at 10 uM after 48 hrs by sulforhodamine B assay relative to control; details: UACC-257, 48 h, read-out: GI
NCI-H23 = assay: Growth inhibition of human NCI-H23 cells at 10 uM after 48 hrs by sulforhodamine B assay relative to control; details: NCI-H23, 48 h, read-out: GI
RXF 393 = assay: Growth inhibition of human RXF393 cells at 10 uM after 48 hrs by sulforhodamine B assay relative to control; details: RXF 393, 48 h, read-out: GI
MDA-MB-468 = assay: Growth inhibition of human MDA-MB-468 cells at 10 uM after 48 hrs by sulforhodamine B assay relative to control; details: MDA-MB-468, 48 h, read-out: GI
NCI/ADR-RES = assay: Growth inhibition of human NCI-ADR-RES cells at 10 uM after 48 hrs by sulforhodamine B assay relative to control; details: read-out: GI
IGROV-1 = assay: Growth inhibition of human IGROV1 cells at 10 uM after 48 hrs by sulforhodamine B assay relative to control; details: IGROV-1, 48 h, read-out: GI
TK-10 = assay: Growth inhibition of human TK10 cells at 10 uM after 48 hrs by sulforhodamine B assay relative to control; details: TK-10, 48 h, read-out: GI
CCRF-CEM = assay: Growth inhibition of human CCRF-CEM cells at 10 uM after 48 hrs by sulforhodamine B assay relative to control; details: read-out: GI
SF-539 = assay: Growth inhibition of human SF539 cells at 10 uM after 48 hrs by sulforhodamine B assay relative to control; details: SF-539, 48 h, read-out: GI
Malme-3M = assay: Growth inhibition of human MALME-3M cells at 10 uM after 48 hrs by sulforhodamine B assay relative to control; details: read-out: GI
SK-MEL-2 = assay: Growth inhibition of human SK-MEL-2 cells at 10 uM after 48 hrs by sulforhodamine B assay relative to control; details: SK-MEL-2, 48 h, read-out: GI
HCC 2998 = assay: Growth inhibition of human HCC2998 cells at 10 uM after 48 hrs by sulforhodamine B assay relative to control; details: HCC 2998, 48 h, read-out: GI
KM12 = assay: Growth inhibition of human KM12 cells at 10 uM after 48 hrs by sulforhodamine B assay relative to control; details: KM12, 48 h, read-out: GI
HCT-15 = assay: Growth inhibition of human HCT15 cells at 10 uM after 48 hrs by sulforhodamine B assay relative to control; details: HCT-15, 48 h, read-out: GI
T47D = assay: Growth inhibition of human T47D cells at 10 uM after 48 hrs by sulforhodamine B assay relative to control; details: read-out: GI
EKVX = assay: Growth inhibition of human EKVX cells at 10 uM after 48 hrs by sulforhodamine B assay relative to control; details: read-out: GI

Row | Compound | inhibition of growth at 10 µM (BT-549) [%] | inhibition of growth at 10 µM (LOX IMVI) [%] | inhibition of growth at 10 µM (NCI-H522) [%] | inhibition of growth at 10 µM (SF-295) [%] | inhibition of growth at 10 µM (CAKI-1) [%] | inhibition of growth at 10 µM (OVCAR-5) [%] | inhibition of growth at 10 µM (ACHN) [%] | inhibition of growth at 10 µM (HL-60(TB)) [%] | inhibition of growth at 10 µM (K562) [%] | inhibition of growth at 10 µM (OVCAR-4) [%] | inhibition of growth at 10 µM (SK-OV-3) [%] | inhibition of growth at 10 µM (OVCAR-3) [%] | inhibition of growth at 10 µM (NCI-H226) [%] | inhibition of growth at 10 µM (SR) [%] | inhibition of growth at 10 µM (SW-620) [%] | inhibition of growth at 10 µM (RPMI-8226) [%] | inhibition of growth at 10 µM (Hs-578T) [%] | inhibition of growth at 10 µM (SF-268) [%] | inhibition of growth at 10 µM (HCT-116) [%] | inhibition of growth at 10 µM (786-0) [%] | other results
1 | COc1ccc(/C=C2\Oc3c(c(OC)c4ccoc4c3CN3CCOCC3)C2=O)cc1 | 56.4 to 65.2 | 56.4 to 65.2 | 56.4 to 65.2 | 56.4 to 65.2 | 56.4 to 65.2 | 56.4 to 65.2 | 56.4 to 65.2 | 56.4 to 65.2 | 56.4 to 65.2 | 56.4 to 65.2 | 56.4 to 65.2 | 56.4 to 65.2 | 56.4 to 65.2 | 56.4 to 65.2 | 56.4 to 65.2 | 56.4 to 65.2 | 56.4 to 65.2 | 56.4 to 65.2 | 56.4 to 65.2 | 56.4 to 65.2 | inhibition of growth at 10 µM (UACC-62): 56.4 to 65.2%; inhibition of growth at 10 µM (UACC-257): 56.4 to 65.2%; inhibition of growth at 10 µM (NCI-H23): 56.4 to 65.2%; inhibition of growth at 10 µM (RXF 393): 56.4 to 65.2%; inhibition of growth at 10 µM (MDA-MB-468): 56.4 to 65.2%; inhibition of growth at 10 µM (NCI/ADR-RES): 56.4 to 65.2%; inhibition of growth at 10 µM (IGROV-1): 56.4 to 65.2%; inhibition of growth at 10 µM (TK-10): 56.4 to 65.2%; inhibition of growth at 10 µM (CCRF-CEM): 56.4 to 65.2%; inhibition of growth at 10 µM (SF-539): 56.4 to 65.2%; inhibition of growth at 10 µM (Malme-3M): 56.4 to 65.2%; inhibition of growth at 10 µM (SK-MEL-2): 56.4 to 65.2%; inhibition of growth at 10 µM (HCC 2998): 56.4 to 65.2%; inhibition of growth at 10 µM (KM12): 56.4 to 65.2%; inhibition of growth at 10 µM (HCT-15): 56.4 to 65.2%; inhibition of growth at 10 µM (T47D): 56.4 to 65.2%; inhibition of growth at 10 µM (EKVX): 56.4 to 65.2%
2 | COc1ccc2c(c1)O/C(=C\c1ccc(OCC(=O)Nc3ccccc3)c(OC)c1)C2=O | 18.9 to 27.1 | 18.9 to 27.1 | 18.9 to 27.1 | 18.9 to 27.1 | 18.9 to 27.1 | 18.9 to 27.1 | 18.9 to 27.1 | 18.9 to 27.1 | 18.9 to 27.1 | 18.9 to 27.1 | 18.9 to 27.1 | 18.9 to 27.1 | 18.9 to 27.1 | 18.9 to 27.1 | 18.9 to 27.1 | 18.9 to 27.1 | 18.9 to 27.1 | 18.9 to 27.1 | 18.9 to 27.1 | 18.9 to 27.1 | inhibition of growth at 10 µM (UACC-62): 18.9 to 27.1%; inhibition of growth at 10 µM (UACC-257): 18.9 to 27.1%; inhibition of growth at 10 µM (NCI-H23): 18.9 to 27.1%; inhibition of growth at 10 µM (RXF 393): 18.9 to 27.1%; inhibition of growth at 10 µM (MDA-MB-468): 18.9 to 27.1%; inhibition of growth at 10 µM (NCI/ADR-RES): 18.9 to 27.1%; inhibition of growth at 10 µM (IGROV-1): 18.9 to 27.1%; inhibition of growth at 10 µM (TK-10): 18.9 to 27.1%; inhibition of growth at 10 µM (CCRF-CEM): 18.9 to 27.1%; inhibition of growth at 10 µM (SF-539): 18.9 to 27.1%; inhibition of growth at 10 µM (Malme-3M): 18.9 to 27.1%; inhibition of growth at 10 µM (SK-MEL-2): 18.9 to 27.1%; inhibition of growth at 10 µM (HCC 2998): 18.9 to 27.1%; inhibition of growth at 10 µM (KM12): 18.9 to 27.1%; inhibition of growth at 10 µM (HCT-15): 18.9 to 27.1%; inhibition of growth at 10 µM (T47D): 18.9 to 27.1%; inhibition of growth at 10 µM (EKVX): 18.9 to 27.1%
3 | COc1cc(/C=C2\Oc3cc4occc4c(OC)c3C2=O)ccc1OCC(=O)Nc1ccccc1 | 67.1 to 79.6 | 67.1 to 79.6 | 67.1 to 79.6 | 67.1 to 79.6 | 67.1 to 79.6 | 67.1 to 79.6 | 67.1 to 79.6 | 67.1 to 79.6 | 67.1 to 79.6 | 67.1 to 79.6 | 67.1 to 79.6 | 67.1 to 79.6 | 67.1 to 79.6 | 67.1 to 79.6 | 67.1 to 79.6 | 67.1 to 79.6 | 67.1 to 79.6 | 67.1 to 79.6 | 67.1 to 79.6 | 67.1 to 79.6 | inhibition of growth at 10 µM (UACC-62): 67.1 to 79.6%; inhibition of growth at 10 µM (UACC-257): 67.1 to 79.6%; inhibition of growth at 10 µM (NCI-H23): 67.1 to 79.6%; inhibition of growth at 10 µM (RXF 393): 67.1 to 79.6%; inhibition of growth at 10 µM (MDA-MB-468): 67.1 to 79.6%; inhibition of growth at 10 µM (NCI/ADR-RES): 67.1 to 79.6%; inhibition of growth at 10 µM (IGROV-1): 67.1 to 79.6%; inhibition of growth at 10 µM (TK-10): 67.1 to 79.6%; inhibition of growth at 10 µM (CCRF-CEM): 67.1 to 79.6%; inhibition of growth at 10 µM (SF-539): 67.1 to 79.6%; inhibition of growth at 10 µM (Malme-3M): 67.1 to 79.6%; inhibition of growth at 10 µM (SK-MEL-2): 67.1 to 79.6%; inhibition of growth at 10 µM (HCC 2998): 67.1 to 79.6%; inhibition of growth at 10 µM (KM12): 67.1 to 79.6%; inhibition of growth at 10 µM (HCT-15): 67.1 to 79.6%; inhibition of growth at 10 µM (T47D): 67.1 to 79.6%; inhibition of growth at 10 µM (EKVX): 67.1 to 79.6%
